The numbers were not newly measured in patent publication US12691066B2, “Dual-targeting biomimetic liposome with elemene (ELE) and cabazitaxel (CTX), and preparation method and use thereof” (HANGZHOU NORMAL UNIVERSITY, priority 2021, dated 2026), which cites them from elsewhere.

With `CO[C@H]1C(=O)[C@]2(C)[C@@H](OC)C[C@H]3OC[C@@]3(OC(C)=O)[C@H]2[C@H](OC(=O)c2ccccc2)[C@]2(O)C[C@H](OC(=O)[C@H](O)[C@@H](NC(=O)OC(C)(C)C)c3ccccc3)C(C)=C1C2(C)C` [Cabazitaxel], the solubility in ethanol entry was “soluble” and the solubility in water result is on record as “almost insoluble”.
